Results from patent publication US7091351B2, “Vanadium compounds for treating cancer” (Parker Hughes Institute, priority 1998, dated 2006).

What was measured:
Format in all cases: cell-based, human
[1] = test system: Ntera-2 testicular cancer cells; test: Flow cytometric TUNEL apoptosis assay, NTERA-2 cells; conditions: 24 h, TUNEL-positive nuclei
Method: A flow cytometric two-color terminal […] transferase (TdT)-mediated digoxigenin-uridine triphosphate (dUTP) nick-end labeling assay (TUNEL) was employed to detect apoptotic nuclei. Gavrieli, Y., Sherman, Y., Ben-Sasson, S. A. Identification of programmed cell death in situ via specific labeling of nuclear DNA fragmentation. J. Cell Biol., 119: 493–501, 1992. Exponentially growing cells (10^6/ml) were incubated in DMSO alone (0.1%) or treated with 100 μM each of the 16 vanadocenes (VDB, VDC, VMDC, VDI, VDA, VDCN, VDOCN, VDSCN, VDSeCN, VDT, VDCO, VDFe, VD(acac), VDH, VD(dpy), and VD(dtc) in 0.1% DMSO for 24 h. Cells were washed in PBS, fixed in 4% paraformaldehyde in PBS for 15 min on ice. Following two washings in PBS, they were permeabilized with 0.1% Triton X-100 in 0.1% sodium citrate for 2 min on ice, and washed twice in PBS. Labeling of exposed 3′-hydroxyl (3′-OH) ends of fragmented nuclear DNA was performed using TdT and fluorescein isothiocyanate (FITC)-conjugated dUTP according to the manufacturer's recommendations (Boehringer Mannheim, Indianapolis, Ind.). Cells were counterstained with 5 μg/ml PI. Control samples included: (i) untreated cells; (ii) cells incubated with the reaction mixture without the TdT enzyme. Cells were analyzed with a FACS Calibur flow cytometer (Becton Dickinson, Mountain View, Calif.). Relative DNA content (PI) was detected with band-pass filter 585/42, and dUTP incorporation (FITC) was detected with band-pass filter 530/30. Fluorescence was compensated for in the acquisition software using single-label control samples. Data were acquired in listmode, gated to 10,000 events per sample, and analyzed with the use of CELLQuest software program (Becton Dickinson). […] Vanadocene-induced apoptosis is shown by an increase in the number of cells staining with FITC-dUTP. The M1 and M2 gates were used to demarcate non-apoptotic and apoptotic PI-counterstained cell populations, respectively. TUNEL assays were performed using two testicular cell lines Tera-2 and Ntera-2 following exposure to each of the 16 vanadocenes. In other experiments, MC540 binding (as an early marker of apoptosis) and PI permeability (as a marker of advanced stage apoptosis) were simultaneously measured in human cancer cells 24 hours after exposure to vanadocenes, as previously described. Uckun, F. M., Narla, R. K., Jun, X., Zeren, T., Venkatachalam, T., Waddick, K. G., Rostostev, A., Myers, D. E. Cytotoxic activity of EGF-genstein against breast cancer cells. Clin. Cancer Res. 4:901–912, 1998. Vassilev, A., Ozer, Z., Navara, C., Mahajan, S., and Uckun, F. M. Bruton's tyrosine kinase as an inhibitor of the Fas/CD95 death-inducing signaling complex. J. Biol. Chem. 274:1646–56, 1999. Whole cells were analyzed using a FACStar Plus flow cytometer (Becton Dickinson, San Jose, Calif.). All analyses were done using 488 nm excitation from an argon laser. MC540 and PI emissions were split with a 600 nm short pass dichroic mirror and a 575 nm band pass filter was placed in front of one photomultiplier tube to measure MC540 emission and a 635 nm band pass filter was used for PI emission.

[2] = test system: ARH77 multiple myeloma cells; test: MTT cytotoxicity assay of oxovanadium(IV) compounds, ARH77; conditions: 48 hr
Method: The cytotoxicity of oxovanadium (W) complexes listed in Table 6 were tested against 9 different human cancer cell lines was performed using the MTT (3-[4,5-dimethylthiazol-2-yl]-2,5-diphenyl tetrazolium bromide) assay (Boehringer Mannheim Corp., Indianapolis, Ind.) as described previously (20). […] Triplicate wells were used for each treatment. To each well, 10 μl of MTT (0.5 mg/ml final concentration) was added and the plates were incubated at 37° C. for 4 hours to allow MTT to form formazan crystals by reacting with metabolically active cells . The formazan crystals were solubilized overnight at 37° C. in a solution containing 10% SDS in 0.01 M HCl. The absorbence of each well was measured in a microplate reader (Labsystems) at 540 nm and a reference wavelength of 690 nm. To translate the OD540 values into the number of live cells in each well, the OD540 values were compared to those on standard OD540—versus—cell number curves generated for each cell line. The percent survival was calculated using the formula: % survival=Live cell number[test]/Live cell number [control]×100. The IC50 values were calculated by non-linear regression analysis using an Graphpad Prism software version 2.0 (Graphpad Software, Inc., San Diego, Calif.).

NALM-6 cells = test: In situ detection of apoptosis, confocal microscopy, NALM-6; conditions: 48 hours after treatment
Method: Exponentially growing cells were seeded in 6-well tissue culture plates and incubated with fresh medium containing compounds. […] The cells were fixed in 2% paraformaldehyde, washed with PBS and pelleted by centrifuging the tubes at 1000 rpm for 5 min. Cells pellets were resuspended in 50 μl of PBS, transferred to superforst plus slides and allowed to attach for 15 min. The cells were permeabilized with 0.1% triton X-100 in 0.1% citrate buffer and incubated for 1 hr at 37° C. with the reaction mixture containing terminal deoxynucleotidyl transferase (TdT) and fluorescein isothiocyanate (FITC)-conjugated dUTP. Cells were washed with PBS to remove unbound reagents and the coverslips were mounted onto slides with Vectashield containing propidium iodide (Vector Labs, Burlingame, Calif.) and slides were viewed with a confocal laser scanning microscope. […] In control reactions, the TdT enzyme was omitted from the reaction mixture.

[3] = test system: HS445 Hodgkin's lymphoma cells; test: MTT cytotoxicity assay of oxovanadium(IV) compounds, HS445; conditions: 48 hr
Method: The cytotoxicity of oxovanadium (W) complexes listed in Table 6 were tested against 9 different human cancer cell lines was performed using the MTT (3-[4,5-dimethylthiazol-2-yl]-2,5-diphenyl tetrazolium bromide) assay (Boehringer Mannheim Corp., Indianapolis, Ind.) as described previously (20). Briefly, exponentially growing tumor cells were seeded into a 96-well plate at a density of 4×10^4cells/well and incubated with medium containing the oxovanadium(IV) compounds concentrations ranging from 0.1 to 250 μM for 48 hours at 37° C. in a humidified 5% CO2 atmosphere. Triplicate wells were used for each treatment. To each well, 10 μl of MTT (0.5 mg/ml final concentration) was added and the plates were incubated at 37° C. for 4 hours to allow MTT to form formazan crystals by reacting with metabolically active cells . The formazan crystals were solubilized overnight at 37° C. in a solution containing 10% SDS in 0.01 M HCl. The absorbence of each well was measured in a microplate reader (Labsystems) at 540 nm and a reference wavelength of 690 nm. To translate the OD540 values into the number of live cells in each well, the OD540 values were compared to those on standard OD540—versus—cell number curves generated for each cell line. The percent survival was calculated using the formula: % survival=Live cell number[test]/Live cell number [control]×100. The IC50 values were calculated by non-linear regression analysis using an Graphpad Prism software version 2.0 (Graphpad Software, Inc., San Diego, Calif.).

| Compound | % Apoptosis at 100 μM NTERA-2 [1] | IC50 [2] | apoptotic nuclei (FITC-dUTP / propidium iodide), NALM-6 (NALM-6 cells) | IC50 [3] |
| --- | --- | --- | --- | --- |
| [Cl-].[Cl-].[V+4].c1cc[cH-]c1.c1cc[cH-]c1 [VDC, VCp2Cl2] | 35 (34, 34) % |  |  |  |
| bis(4,7-dimethyl-1,10-phenanthroline)sulfatooxovanadium(IV) [Compound 29] |  | 0.81 ± 0.9 µM | many apoptotic yellow nuclei | 0.5 ± 0.08 µM |
